Results as given in patent US11078250B2, “High-activity long-acting hypoglycemic fusion protein as well as preparation method and medical application thereof” (China Pharmaceutical University, priority 2016, dated 2021).
Several values for one entry are separate records, joined by “and”; a condition that tells them apart may be missing. Equal entries are not always repeated.

Key:
[1] = test system: type II diabetic mice C57BL/KsJ-db/db (BKS.Cg-Dock7m+/+Leprdb/JNju); experiment: Acute hypoglycemic test in type II diabetic model mice; assay type: in vivo, mouse
Method: (§1) 50 six-week-old type II diabetic mice C57BL/KsJ-db/db (namely, S.Cg-Dock7^m+/+Lepr^db/JNju mouse) and 10 control mice C57BLKS/JNju are purchased from Nanjing Biomedical Research Institute of Nanjing University (certificate number: 201602819, and license number: SCXK (Su) 2015-0001). The mouse are fed in a SPF-grade animal house with a humidity of 40-60% at room temperature of 25° C. for 12 h each under light and dark conditions, and an experiment is carried out after adaptive feeding for one week. Blood glucose concentration is measured using a Roche Accu-Chek® Performa glucometer and blood glucose test paper. Experiment grouping and administration modes are seen in Table 1.
Blood glucose levels of each group of mouse are detected before administration. As shown in Table 2 and FIG. 7, blood glucose levels of a model group, Ex-4, EX-mhIgG1Fc and EX-L21K-mhIgG1Fc (5-20 nmol/kg) are respectively 24±0.81, 24.53±1.20, 23.31±1.05, 23.04±1.23, 22.41±1.51 and 24.99±1.43 mM. There is a significant difference (P<0.0001) compared with 8.58±0.25 mM in a normal control group. […] Moreover, there is no difference between the drug groups and the model group, and subsequent experiments can be carried out.
After mouse are administrated, blood glucose levels after administration for 1, 2, 4, 8, 12, 24, 36, 48, 60, 72, 96 and 120 h are continuously monitored. […] The blood glucoses of mouse in Ex-4 group are gradually raised back to a level before administration, and the blood glucoses of mouse in EX-mhIgG1Fc group are gradually raised back to a level before administration after administration for 48 h. The hypoglycemic effects of various dosage group of EX-L21K-mhIgG1Fc are more durable, wherein, the hypoglycemic effect of 5 nmol/kg EX-L21K-mhIgG1Fc lasts until 72 h after administration (P<0.01 vs model group), the hypoglycemic effects of 10 nmol/kg EX-L21K-mhIgG1Fc (P<0.01 vs model group) and 20 nmol/kg EX-L21K-mhIgG1Fc (P<0.0001 vs model group) are still present after administration for 96 h.
Compared with Ex-4, AUCs0-24 h of various groups of EX-mhIgG1Fc and EX-L21K-mhIgG1Fc (5-20 nmol/kg) drugs has no significant difference.

[2] = test system: type II diabetic mice C57BL/KsJ-db/db (BKS.Cg-Dock7m+/+Leprdb/JNju); experiment: Intraperitoneal glucose tolerance test (IPGTT); assay type: in vivo, mouse; conditions: for IPGTT glucose AUC0-180 min: n=8, mean ± SEM; for Fasting blood glucose vs model group: fasted 18 h, Ex-4 and EX-mhIgG1Fc 10 nmol/kg, EX-L21K-mhIgG1Fc 5-20 nmol/kg, ip, P<0.0001
Method: as §1
Various groups of animals are fasted overnight for 18 h before test. Firstly, normal saline, Ex-4, EX-mhIgG1Fc and EX-L21K-mhIgG1Fc are respectively intraperitoneally injected. After administration for 2 h, 1.5 g/kg glucose is intraperitoneally injected to each mouse, blood is taken via caudal vein, and blood glucose concentrations in −120, 0, 15, 30, 45, 60, 90, 120 and 180 min are recorded. During the test, animals are normally dieted and supplied with water.
Area under the curve is further applied for analysis.

[3] = cited from earlier work
[4] = 0 h (before administration), 10 nmol/kg ip, n=8, mean ± SEM
[5] = 1 h after administration, 10 nmol/kg ip
[6] = 2 h after administration, 10 nmol/kg ip
[7] = 4 h after administration, 10 nmol/kg ip
[8] = 8 h after administration, 10 nmol/kg ip
[9] = 12 h after administration, 10 nmol/kg ip
[10] = 24 h after administration, 10 nmol/kg ip
[11] = 36 h after administration, 10 nmol/kg ip
[12] = 48 h after administration, 10 nmol/kg ip
[13] = 60 h after administration, 10 nmol/kg ip
[14] = 72 h after administration, 10 nmol/kg ip
[15] = 96 h after administration, 10 nmol/kg ip
[16] = 120 h after administration, 10 nmol/kg ip
[17] = Ex-4 and EX-mhIgG1Fc 10 nmol/kg, EX-L21K-mhIgG1Fc 5-20 nmol/kg, ip
[18] = 10 nmol/kg ip 120 min before 1.5 g/kg glucose ip

EX-L21K-mhIgG1Fc: fusion protein of Exendin-4 mutant EX-L21K, Gly-rich linker peptide, optimally mutated human IgG1 hinge region and constant regions CH2 and CH3; SEQ ID NO: 11
Blood glucose ([1]; 0 h (before administration), 5 nmol/kg ip, n=8, mean ± SEM): 23.04 ± 1.23 mM and 23.04 mM
Blood glucose [1, 4]: 22.41 ± 1.51 mM and 22.41 mM
Blood glucose ([1]; 0 h (before administration), 20 nmol/kg ip, n=8, mean ± SEM): 24.99 ± 1.43 mM and 24.99 mM
Time after administration to which hypoglycemic effect lasts ([1]; 5 nmol/kg ip, P<0.01 vs model group): 72 h
Blood glucose AUC0-24 h ([1]; 5 nmol/kg ip, n=8, mean ± SEM): 296.69 ± 34.39 mM·h
Time after administration to which hypoglycemic effect lasts ([1]; 10 nmol/kg ip): ≥ 96 h
Blood glucose AUC0-24 h ([1]; 10 nmol/kg ip, n=8, mean ± SEM): 237.34 ± 16.87 mM·h
Time after administration to which hypoglycemic effect lasts ([1]; 20 nmol/kg ip, P<0.0001 vs model group): ≥ 96 h
Blood glucose AUC0-24 h ([1]; 20 nmol/kg ip, n=8, mean ± SEM): 230.80 ± 20.09 mM·h
Time after administration to which hypoglycemic effect lasts ([1]; 5-20 nmol/kg ip): 96 h
Blood glucose ([1]; 1 h after administration, 5 nmol/kg ip): 15.18 mM
Blood glucose [1, 5]: 15.2 mM
Blood glucose ([1]; 1 h after administration, 20 nmol/kg ip): 14.98 mM
Blood glucose ([1]; 2 h after administration, 5 nmol/kg ip): 11.28 mM
Blood glucose [1, 6]: 14.3 mM
Blood glucose ([1]; 2 h after administration, 20 nmol/kg ip): 12.46 mM
Blood glucose ([1]; 4 h after administration, 5 nmol/kg ip): 9.16 mM
Blood glucose [1, 7]: 8.48 mM
Blood glucose ([1]; 4 h after administration, 20 nmol/kg ip): 9.54 mM
Blood glucose ([1]; 8 h after administration, 5 nmol/kg ip): 9.91 mM
Blood glucose [1, 8]: 8.01 mM
Blood glucose ([1]; 8 h after administration, 20 nmol/kg ip): 8.73 mM
Blood glucose ([1]; 12 h after administration, 5 nmol/kg ip): 13.06 mM
Blood glucose [1, 9]: 10.13 mM
Blood glucose ([1]; 12 h after administration, 20 nmol/kg ip): 53 mM
Blood glucose ([1]; 24 h after administration, 5 nmol/kg ip): 13.58 mM
Blood glucose [1, 10]: 8.5 mM
Blood glucose ([1]; 24 h after administration, 20 nmol/kg ip): 7.49 mM
Blood glucose ([1]; 36 h after administration, 5 nmol/kg ip): 17.34 mM
Blood glucose [1, 11]: 12.9 mM
Blood glucose ([1]; 36 h after administration, 20 nmol/kg ip): 11.95 mM
Blood glucose ([1]; 48 h after administration, 5 nmol/kg ip): 16.46 mM
Blood glucose [1, 12]: 12.96 mM
Blood glucose ([1]; 48 h after administration, 20 nmol/kg ip): 12.2 mM
Blood glucose ([1]; 60 h after administration, 5 nmol/kg ip): 22.39 mM
Blood glucose [1, 13]: 21.36 mM
Blood glucose ([1]; 60 h after administration, 20 nmol/kg ip): 21.5 mM
Blood glucose ([1]; 72 h after administration, 5 nmol/kg ip): 18.85 mM
Blood glucose [1, 14]: 17.4 mM
Blood glucose ([1]; 72 h after administration, 20 nmol/kg ip): 14.1 mM
Blood glucose ([1]; 96 h after administration, 5 nmol/kg ip): 18.71 mM
Blood glucose [1, 15]: 17.33 mM
Blood glucose ([1]; 96 h after administration, 20 nmol/kg ip): 14.46 mM
Blood glucose ([1]; 120 h after administration, 5 nmol/kg ip): 23.35 mM
Blood glucose [1, 16]: 22.96 mM
Blood glucose ([1]; 120 h after administration, 20 nmol/kg ip): 22.76 mM
Blood glucose AUC0-72 h compared with model group [1, 17]: significantly reduced
Blood glucose AUC0-120 h compared with model group [1, 17]: significantly reduced
IPGTT glucose AUC0-180 min ([2]; 5 nmol/kg ip 120 min before 1.5 g/kg glucose ip): 2338 ± 181.2 mM·min
IPGTT glucose AUC0-180 min [2, 18]: 2035 ± 169.6 mM·min
IPGTT glucose AUC0-180 min ([2]; 20 nmol/kg ip 120 min before 1.5 g/kg glucose ip): 2082 ± 119.9 mM·min
Fasting blood glucose vs model group [2]: significantly reduced

Exendin-4 [Ex-4, reference compound]
in-vivo half-life period [3]: 3.3˜4 hours
Blood glucose [1, 4]: 24.53 ± 1.20 mM and 24.53 mM
Blood glucose AUC0-24 h ([1]; 10 nmol/kg ip, n=8, mean ± SEM): 374.46 ± 6.20 mM·h
Blood glucose [1, 5]: 10.63 mM
Blood glucose [1, 6]: 10.79 mM
Blood glucose [1, 7]: 10.71 mM
Blood glucose [1, 8]: 15.31 mM
Blood glucose [1, 9]: 24.43 mM
Blood glucose [1, 10]: 20.48 mM
Blood glucose [1, 11]: 26.59 mM
Blood glucose [1, 12]: 24.76 mM
Blood glucose [1, 13]: 27.19 mM
Blood glucose [1, 14]: 25.34 mM
Blood glucose [1, 15]: 23.68 mM
Blood glucose [1, 16]: 24.83 mM
Blood glucose AUC0-72 h compared with model group [1, 17]: no significant change
Blood glucose AUC0-120 h compared with model group [1, 17]: no significant change
Time after administration at which hypoglycemic effect is exhibited [1, 17]: 1 h
IPGTT glucose AUC0-180 min [2, 18]: 2058 ± 109.5 mM·min
Fasting blood glucose vs model group [2]: significantly reduced
